Data published in PubChem BioAssay AID330 (DTP/NCI, 2004).
Several values for one entry are separate records, joined by “and”; a condition that tells them apart may be missing. Equal entries are not always repeated. Inconclusive results and toxic doses are left out. The calls were made as follows: active = survival T/C of 150% or more; inactive = T/C below 125% in these data. Square brackets hold non-standard residues; d marks the D form. Peptide text beside a SMILES is read from it. ξ: configuration not given here. ξY = NC(Cc1ccc(O)cc1)C(=O)O

Tested on: P388 leukemia ip, CD2F1 mice, survival T/C
Assay: NCI In Vivo Anticancer Drug Screen. Data for tumor model P388 Leukemia (intraperitoneal) in CD2F1 (CDF1) mice
Conditions: endpoint: median survival time, higher = longer survival
Outline: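 Mice carrying the transplanted tumor received test compound or vehicle. Survival was recorded in each group, and the value is the treated-group measurement divided by that of the vehicle-treated control group.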

[1] = dose: 50.0 mg/kg/injection, schedule: Q01DX005 (ip), vehicle: saline with Tween-80
[2] = dose: 100.0 mg/kg/injection, schedule: Q01DX005 (ip), vehicle: saline with Tween-80
[3] = dose: 200.0 mg/kg/injection, schedule: Q01DX005 (ip), vehicle: saline with Tween-80
[4] = dose: 60.0 mg/kg/injection, schedule: Q01DX005 (ip), vehicle: saline with Tween-80
[5] = dose: 120.0 mg/kg/injection, schedule: Q01DX005 (ip), vehicle: saline with Tween-80
[6] = dose: 240.0 mg/kg/injection, schedule: Q01DX005 (ip), vehicle: saline with Tween-80
[7] = dose: 100.0 mg/kg/injection, schedule: Q04DX003 (ip), vehicle: saline with Tween-80
[8] = dose: 100.0 mg/kg/injection, schedule: Q04DX003 (ip), vehicle: saline
[9] = dose: 200.0 mg/kg/injection, schedule: Q04DX003 (ip), vehicle: saline with Tween-80
[10] = dose: 200.0 mg/kg/injection, schedule: Q04DX003 (ip), vehicle: saline
[11] = dose: 50.0 mg/kg/injection, schedule: Q01DX005 (ip), vehicle: Klucel (hydroxypropylcellulose) (HPC)
[12] = dose: 100.0 mg/kg/injection, schedule: Q01DX005 (ip), vehicle: Klucel (hydroxypropylcellulose) (HPC)
[13] = dose: 200.0 mg/kg/injection, schedule: Q01DX005 (ip), vehicle: Klucel (hydroxypropylcellulose) (HPC)

Measured: T/C

COc1ccc2c(Nc3ccc(NS(C)(=O)=O)cc3)c3ccccc3nc2c1
active: dose: 2.5 mg/kg/injection, schedule: Q01DX009 (ip), vehicle: saline with Tween-80 164 % of control | dose: 5.0 mg/kg/injection, schedule: Q01DX009 (ip), vehicle: saline with Tween-80 194 % of control | dose: 9.38 mg/kg/injection, schedule: Q01DX009 (ip), vehicle: saline with Tween-80 218 % of control | dose: 10.0 mg/kg/injection, schedule: Q01DX009 (ip), vehicle: saline with Tween-80 270 % of control | dose: 13.2 mg/kg/injection, schedule: Q04DX003 (ip), vehicle: saline with Tween-80 163 % of control | dose: 20.0 mg/kg/injection, schedule: Q04DX003 (ip), vehicle: saline with Tween-80 168 % of control | dose: 22.0 mg/kg/injection, schedule: Q04DX003 (ip), vehicle: saline with Tween-80 175 % of control | dose: 30.0 mg/kg/injection, schedule: Q04DX003 (ip), vehicle: saline with Tween-80 200 % of control | dose: 33.0 mg/kg/injection, schedule: Q04DX003 (ip), vehicle: saline with Tween-80 204 % of control | dose: 50.0 mg/kg/injection, schedule: Q04DX003 (ip), vehicle: saline with Tween-80 216 % of control | dose: 75.0 mg/kg/injection, schedule: Q04DX003 (ip), vehicle: saline with Tween-80 237 % of control
inactive: dose: 0.07 mg/kg/injection, schedule: Q01DX009 (ip), vehicle: saline 99 % of control | dose: 0.1 mg/kg/injection, schedule: Q01DX009 (ip), vehicle: saline 113 % of control | dose: 0.15 mg/kg/injection, schedule: Q01DX009 (ip), vehicle: saline 116 % of control | dose: 0.23 mg/kg/injection, schedule: Q01DX009 (ip), vehicle: saline 122 % of control | dose: 1.1 mg/kg/injection, schedule: Q04DX003 (ip), vehicle: saline with Tween-80 119 % of control | dose: 18.7 mg/kg/injection, schedule: Q01DX009 (ip), vehicle: saline with Tween-80 97 % of control

CC(=O)OC1CC2C(C)(C)C(=O)C3OC3C2(C)C2CCC3(C)C(c4ccoc4)C(=O)C4OC43C12C (stereo unspecified)
inactive: dose: 0.38 mg/kg/injection, schedule: Q01DX005 (ip), vehicle: Klucel (hydroxypropylcellulose) (HPC) 100 % of control | dose: 0.75 mg/kg/injection, schedule: Q01DX005 (ip), vehicle: Klucel (hydroxypropylcellulose) (HPC) 100 % of control | dose: 1.5 mg/kg/injection, schedule: Q01DX005 (ip), vehicle: Klucel (hydroxypropylcellulose) (HPC) 100 % of control | dose: 3.0 mg/kg/injection, schedule: Q01DX005 (ip), vehicle: Klucel (hydroxypropylcellulose) (HPC) 100 % of control | dose: 6.0 mg/kg/injection, schedule: Q01DX005 (ip), vehicle: Klucel (hydroxypropylcellulose) (HPC) 106 % of control

CC1(C(N)C(=O)O)CC(Cl)=NO1 (stereo unspecified)
inactive: dose: 4.0 mg/kg/injection, schedule: Q01DX009 (ip), vehicle: other 108 % of control | dose: 8.0 mg/kg/injection, schedule: Q01DX009 (ip), vehicle: other 103 % of control | dose: 16.0 mg/kg/injection, schedule: Q01DX009 (ip), vehicle: other 100 % of control | dose: 32.0 mg/kg/injection, schedule: Q01DX009 (ip), vehicle: other 103 % of control | dose: 64.0 mg/kg/injection, schedule: Q01DX009 (ip), vehicle: other 103 % of control | dose: 128.0 mg/kg/injection, schedule: Q01DX009 (ip), vehicle: other 94 % of control

C[Si](C)(C)c1ccc2c(c1O)C(=O)c1ccccc1C2=O
inactive: [1] 100 % of control | [2] 100 % of control | [3] 102 % of control

Cc1c2ccn3c(=O)c4ccccc4cc3c2c(C)c2c1[nH]c1ccccc12
inactive: dose: 0.78 mg/kg/injection, schedule: Q04DX003 (ip), vehicle: distilled water + Tween-80 89 % of control | dose: 1.56 mg/kg/injection, schedule: Q04DX003 (ip), vehicle: distilled water + Tween-80 87 % of control | dose: 200.0 mg/kg/injection, schedule: Q04DX003 (ip), vehicle: distilled water + Tween-80 95 % of control

Nc1ccc(C2NC(=O)Cc3ccccc32)cc1 (stereo unspecified)
inactive: dose: 50.0 mg/kg/injection, schedule: Q01DX009 (ip), vehicle: saline 92 % of control | dose: 100.0 mg/kg/injection, schedule: Q01DX009 (ip), vehicle: saline 90 % of control | dose: 200.0 mg/kg/injection, schedule: Q01DX009 (ip), vehicle: saline 86 % of control

O=C(CCCCC(=O)N/N=C/c1ccco1)N/N=C/c1ccco1
inactive: [4] 99 % of control | [5] 94 % of control | [6] 91 % of control

CC1(C)N=C(N)N=C(N)N1c1ccc(OCCOc2ccc(S(=O)(=O)F)cc2)c(Cl)c1
active: dose: 12.5 mg/kg/injection, schedule: Q04DX003 (ip), vehicle: saline 159 % of control | dose: 25.0 mg/kg/injection, schedule: Q04DX003 (ip), vehicle: saline 181 % of control and 185 % of control | dose: 50.0 mg/kg/injection, schedule: Q04DX003 (ip), vehicle: saline 181 % of control and 185 % of control | [7] 175 % of control | [8] 190 % of control and 200 % of control | dose: 132.0 mg/kg/injection, schedule: Q04DX003 (ip), vehicle: saline with Tween-80 162 % of control | [9] 185 % of control
inactive: [10] 109 % of control

CCSC(=O)OCC(C)([N+](=O)[O-])[N+](=O)[O-]
inactive: [8] 94 % of control | [10] 94 % of control | dose: 400.0 mg/kg/injection, schedule: Q04DX003 (ip), vehicle: saline 100 % of control

C=CCNC(=S)N/N=C(/C=C/c1ccc(OC)cc1)CCN(C)C
inactive: dose: 100.0 mg/kg/injection, schedule: Q01DX001 (ip), vehicle: saline with Tween-80 87 % of control | dose: 200.0 mg/kg/injection, schedule: Q01DX001 (ip), vehicle: saline with Tween-80 89 % of control | dose: 400.0 mg/kg/injection, schedule: Q01DX001 (ip), vehicle: saline with Tween-80 90 % of control

O=C(c1ccccc1)c1cnc2ccccc2c1
inactive: [11] 101 % of control | [12] 101 % of control | [13] 104 % of control

Cc1cc(=O)[nH]c(Nc2ccccc2)n1
inactive: [7] 100 % of control | [9] 90 % of control | dose: 400.0 mg/kg/injection, schedule: Q04DX003 (ip), vehicle: saline with Tween-80 100 % of control

NCC(=O)NC(Cc1ccc(O)cc1)C(=O)NCC(=O)O (stereo unspecified) (H-Gly-[ξY]-Gly-OH)
inactive: [11] 99 % of control | [12] 98 % of control | [13] 98 % of control

COC(=O)c1[nH]c(=O)c(C#N)c(C(=O)OC)c1-c1ccccn1
inactive: [4] 93 % of control | [5] 92 % of control | [6] 92 % of control

O=c1[nH][nH]c2c(N=Cc3ccccc3O)ccc(F)c12
inactive: dose: 50.0 mg/kg/injection, schedule: Q01DX005 (ip), vehicle: Klucel + Tween-80 108 % of control | dose: 100.0 mg/kg/injection, schedule: Q01DX005 (ip), vehicle: Klucel + Tween-80 102 % of control | dose: 200.0 mg/kg/injection, schedule: Q01DX005 (ip), vehicle: Klucel + Tween-80 108 % of control

Cc1cc(C)c(-c2c(Br)c(OC(=O)CO[C@@H]3C[C@H](C)CC[C@H]3C(C)C)c(-c3c(C)cc(C)c(Br)c3C)c(Br)c2OC(=O)CO[C@@H]2C[C@H](C)CC[C@H]2C(C)C)c(C)c1Br
inactive: [1] 107 % of control | [2] 100 % of control | [3] 88 % of control

Oc1ccc(Nc2ccnc3cc(Cl)ccc23)cc1CN(CCCl)CCCl
active: dose: 0.63 mg/kg/injection, schedule: Q01DX009 (ip), vehicle: saline 150 % of control | dose: 2.5 mg/kg/injection, schedule: Q01DX009 (ip), vehicle: saline 153 % of control and 156 % of control
inactive: dose: 0.16 mg/kg/injection, schedule: Q01DX009 (ip), vehicle: saline 119 % of control | dose: 0.31 mg/kg/injection, schedule: Q01DX009 (ip), vehicle: saline 123 % of control | dose: 1.25 mg/kg/injection, schedule: Q01DX009 (ip), vehicle: saline 101 % of control

COc1nc(NC2OC(COC(C)=O)C(OC(C)=O)C(OC(C)=O)C2OC(C)=O)c(C(=O)CCl)c(=O)[nH]1 (stereo unspecified)
inactive: [4] 93 % of control | [5] 90 % of control | [6] 101 % of control

CN(C)/N=C1/CCCCC1C(O)(c1ccccc1)c1ccccc1 (stereo unspecified)
inactive: [4] 97 % of control
